The supplement of paper PMC11208160
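Also: IS621 bridge recombinase in Escherichia coli cells against a fixed T5 target plasmid.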

Experiment: recombinant UMI read abundance after kanamycin selection (control-corrected) (log10(CPM+1)); higher = more efficient recombination; extreme values may be limits of the assay; sequences stand for … in AGTGCAGAGAAAATCGGCCAGTTTTCTCTGCCTGCAGTCCGCATGCCGTGGGACCCCTTGGGTTCTAACCTGTTGCCTAGATTTATGCAGCGGACTGCCTTTCTCCCAAAGTGATAAACCGG…AGGTTGGTTTCACT; site = the 11-nt donor
Procedure, shortened: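 In a pooled Escherichia coli screen for the IS621 bridge recombinase, donor and donor-binding-loop pairs were each placed with a 12-nt UMI on a plasmid bearing a promoterless kanamycin gene. This library was co-electroporated with a target plasmid encoding a fixed target and T7-inducible recombinase, and cells were plated either on IPTG (0.07 mM) plus kanamycin or without selection, in two replicates each. Recombinant UMIs were PCR-amplified across the donor–target junction and sequenced, and counts were converted to CPM, averaged over replicates, scaled by control-derived factors and reported as log10(CPM+1).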
With “GGATAGGCATGGACCGGTTTTCCCGGTAATCCGTATTTGCC (site GGATAGGCTGG)” the “recombinant UMI read abundance (log10)” value was 2.44.
For “TCCTAATCATGGACCGGTTTTCCCGGTAATCCGTATTTGTT (site TCCTAATCTAA)”, the “recombinant UMI read abundance (log10)” value was 0.
With “GGAAGCACATGGACCGGTTTTCCCGGTAATCCGTATTTGGG (site GGAAGCACTCC)” the “recombinant UMI read abundance (log10)” value was 0.0218.
With “GCCAATCCATGGACCGGTTTTCCCGGTAATCCGTATTTGAA (site GTCAATCCTTT)” the “recombinant UMI read abundance (log10)” value was 0.00267.
With “TCTGCGGCATGGACCGGTTTTCCCGGTAATCCGTATTTGCT (site TTTGCGGCTAG)” the “recombinant UMI read abundance (log10)” value was 0.0104.
For “ATGTAGGCATGGACCGGTTTTCCCGGTAATCCGTATTTGAC (site ATGTAGGCTGT)”, the “recombinant UMI read abundance (log10)” value was 3.04.
With “GTTAGAGCATGGACCGGTTTTCCCGGTAATCCGTATTTGAC (site GTTAGAGCTGT)” the “recombinant UMI read abundance (log10)” value was 2.46.
In the case of “TAGGAATCATGGACCGGTTTTCCCGGTAATCCGTATTTGCA (site TAGGAATCTCG)”, the “recombinant UMI read abundance (log10)” value was 1.64.
In the case of “CCCTACACATGGACCGGTTTTCCCGGTAATCCGTATTTGTA (site CCCGACACTTA)”, the “recombinant UMI read abundance (log10)” value was 0.0499.
With “CTATATCCATGGACCGGTTTTCCCGGTAATCCGTATTTGTA (site CTATATCCTTA)” the “recombinant UMI read abundance (log10)” value was 1.51.
With “AGGAAGACATGGACCGGTTTTCCCGGTAATCCGTATTTGCA (site ACGAAGTCTTG)” the “recombinant UMI read abundance (log10)” value was 0.
In the case of “CGTTGCTCATGGACCGGTTTTCCCGGTAATCCGTATTTGAT (site CGTTGCTCTAT)”, the “recombinant UMI read abundance (log10)” value was 1.8.
For “ATGGGAGCATGGACCGGTTTTCCCGGTAATCCGTATTTGCT (site ATGGGAGCTAG)”, the “recombinant UMI read abundance (log10)” value was 2.19.
With “GCTACTCCATGGACCGGTTTTCCCGGTAATCCGTATTTGCC (site GCTACTACTGG)” the “recombinant UMI read abundance (log10)” value was 0.
In the case of “AGCCAAGCATGGACCGGTTTTCCCGGTAATCCGTATTTGAG (site AGCCAAGCTCT)”, the “recombinant UMI read abundance (log10)” value was 1.3.
With “AGTTAGACATGGACCGGTTTTCCCGGTAATCCGTATTTGAG (site GGTTAGACTCT)” the “recombinant UMI read abundance (log10)” value was 0.353.
With “CTAGTCTCATGGACCGGTTTTCCCGGTAATCCGTATTTGTC (site CTAGTCTCTGA)” the “recombinant UMI read abundance (log10)” value was 3.48.
For “CCAGGTGCATGGACCGGTTTTCCCGGTAATCCGTATTTGAT (site CCAGGGGCTAT)”, the “recombinant UMI read abundance (log10)” value was 1.32.
In the case of “TGGACTCCATGGACCGGTTTTCCCGGTAATCCGTATTTGTT (site TGGACTCCTAA)”, the “recombinant UMI read abundance (log10)” value was 0.214.
In the case of “GATTAGACATGGACCGGTTTTCCCGGTAATCCGTATTTGAC (site GATTAGACTGT)”, the “recombinant UMI read abundance (log10)” value was 2.76.
With “GCTACTGCATGGACCGGTTTTCCCGGTAATCCGTATTTGGC (site GCTACTGCTGC)” the “recombinant UMI read abundance (log10)” value was 1.92.
With “CTGCAACCATGGACCGGTTTTCCCGGTAATCCGTATTTGCT (site CTGCAACCTAG)” the “recombinant UMI read abundance (log10)” value was 0.209.
In the case of “CCCGTCGCATGGACCGGTTTTCCCGGTAATCCGTATTTGCT (site CCCGTCGCTAG)”, the “recombinant UMI read abundance (log10)” value was 0.795.
For “GTTAGAACATGGACCGGTTTTCCCGGTAATCCGTATTTGTC (site GTTAGAACTGC)”, the “recombinant UMI read abundance (log10)” value was 0.
For “CCGTTTACATGGACCGGTTTTCCCGGTAATCCGTATTTGTT (site CCGTTTACTAA)”, the “recombinant UMI read abundance (log10)” value was 0.175.
With “CGCGGCCCATGGACCGGTTTTCCCGGTAATCCGTATTTGTT (site CTCGGCCCTAA)” the “recombinant UMI read abundance (log10)” value was 0.00821.
In the case of “TAGCTAGCATGGACCGGTTTTCCCGGTAATCCGTATTTGAA (site TAGGTAGCTTT)”, the “recombinant UMI read abundance (log10)” value was 0.0179.
With “AGATAGACATGGACCGGTTTTCCCGGTAATCCGTATTTGCC (site GGATAGACTGG)” the “recombinant UMI read abundance (log10)” value was 1.35.
With “AAACATCCATGGACCGGTTTTCCCGGTAATCCGTATTTGAC (site AAACATCCTGT)” the “recombinant UMI read abundance (log10)” value was 1.26.
In the case of “AAAGTCTCATGGACCGGTTTTCCCGGTAATCCGTATTTGAT (site AAAGTCTCTAT)”, the “recombinant UMI read abundance (log10)” value was 3.17.
In the case of “CCCTTCTCATGGACCGGTTTTCCCGGTAATCCGTATTTGCG (site CCCTTCTCTCC)”, the “recombinant UMI read abundance (log10)” value was 0.195.
With “CGAGGACCATGGACCGGTTTTCCCGGTAATCCGTATTTGGG (site CGAGGACCTCA)” the “recombinant UMI read abundance (log10)” value was 0.0034.
